Key:
[1] = molecular target: T1, Hormone-sensitive lipase (HSL) (Homo sapiens, UniProt Q05469); assay: Hormone-sensitive lipase (HSL) inhibition assay, 3H-labeled triolein or MOME substrate; assay type: biochemical; conditions: read-out: HSL inhibition (IC50)
T1 sequence (Q05469 1-1076): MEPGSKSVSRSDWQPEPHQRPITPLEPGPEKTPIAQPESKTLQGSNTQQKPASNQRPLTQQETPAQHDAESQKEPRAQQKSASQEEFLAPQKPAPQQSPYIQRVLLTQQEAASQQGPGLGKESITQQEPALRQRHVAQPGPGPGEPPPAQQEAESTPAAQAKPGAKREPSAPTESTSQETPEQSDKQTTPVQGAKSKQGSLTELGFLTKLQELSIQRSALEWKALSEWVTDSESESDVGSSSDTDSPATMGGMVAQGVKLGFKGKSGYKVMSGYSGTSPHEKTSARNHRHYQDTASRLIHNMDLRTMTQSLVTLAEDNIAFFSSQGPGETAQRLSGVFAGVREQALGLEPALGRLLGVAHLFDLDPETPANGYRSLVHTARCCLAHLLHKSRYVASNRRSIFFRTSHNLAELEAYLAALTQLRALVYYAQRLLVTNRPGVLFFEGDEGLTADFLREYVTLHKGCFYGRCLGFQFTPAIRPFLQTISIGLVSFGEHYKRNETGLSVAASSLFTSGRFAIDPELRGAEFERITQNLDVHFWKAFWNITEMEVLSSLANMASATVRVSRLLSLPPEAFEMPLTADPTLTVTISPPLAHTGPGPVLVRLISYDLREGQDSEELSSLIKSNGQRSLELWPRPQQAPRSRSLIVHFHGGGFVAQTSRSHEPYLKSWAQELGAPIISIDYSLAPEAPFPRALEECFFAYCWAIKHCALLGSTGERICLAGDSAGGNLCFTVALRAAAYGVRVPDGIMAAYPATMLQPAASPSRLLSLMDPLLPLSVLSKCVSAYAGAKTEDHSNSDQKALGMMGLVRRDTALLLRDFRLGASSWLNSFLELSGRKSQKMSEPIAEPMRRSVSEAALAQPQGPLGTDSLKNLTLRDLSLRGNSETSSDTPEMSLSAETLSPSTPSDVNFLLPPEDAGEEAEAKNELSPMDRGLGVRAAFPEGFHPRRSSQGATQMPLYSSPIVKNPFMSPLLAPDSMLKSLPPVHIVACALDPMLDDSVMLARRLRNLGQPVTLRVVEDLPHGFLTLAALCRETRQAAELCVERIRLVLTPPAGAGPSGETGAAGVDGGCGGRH
Description: (§1) Hormone-sensitive lipase (HSL) [classified as a triacylglycerol lipase, EC 3.1.1.3, in accordance with the Recommendations of the Nomenclature Committee of the International Union of Biochemistry and Molecular Biology (available on the World Wide Web at the following address: http://www.chem.qmw.ac.uk/iubmb/enzyme/)]
Materials. The Hormone-sensitive lipase employed was provided by Dr. Cecilia Holm of Lund University, Sweden, or produced and purified by Novo Nordisk (NN) using the reagents and protocols employed by Dr. Holm. The substrates used are: ^3H-labeled triolein (TO) from Amersham, Buckinghamshire, U.K. cat No. TRA191; 5-20 Ci/mmol dissolved in toluene, triolein (Sigma, Cat. No. T-1740) and mono-oleoyl-2-O-mono-oleylglycerol (MOME) synthesized at (NN) using the protocols provided by Dr. Cecilia Holm, Lund University, Sweden. Phosphatidyl choline (PC) and phosphatidyl inositol (PI) are from Sigma (St Luis Mo., cat. Nos. P-3556 and P-5954, respectively). All other reagents are of commercial grade and obtained from various commercial sources.
Methods. The preparation of the substrates is as follows:
TO: 30 μl PC:PI (20 mg/ml solution of PC:PI 3:1 prepared in chloroform)+128 μl cold TO+15 μl ^3H-TO
MOME: 30 μl PC:PI+100 μl cold MOME+200 μl ^3H-MOME
They are then evaporated under a gentle stream of N2 followed by 20-30 minutes in a Speedvac™ apparatus to ensure the absence of residual solvent.
The samples are prepared as follows:
Samples/controls: 78 μl PED-BSA+20 μl inhibitor (various concentrations)+2 μl HSL (undiluted 0.12 mg/ml). If no inhibitors are being tested, the reaction contains 98 μl PED-BSA+2 μl HSL.
The samples are put on ice and then sonicated as follows:
With TO as substrate, add 2 ml potassium buffer (0.1M potassium phosphate, pH 7) and then sonicate twice for 1 minute, with a 1-minute interval between cycles. Add an additional 1 ml potassium buffer and sonicate 4 times for 30 seconds, with a 30 second interval in between cycles. To finish, add 1 ml BSA 20%-in potassium buffer, mix by inversion and store on ice until use.
With MOME as substrate: add 2 ml potassium buffer and then sonicate twice for 1 minute, with a 1 minute interval between cycles. Add 1.6 ml potassium buffer and sonicate 4 times for 30 seconds, with a 30-second interval between cycles. To finish, add 0.4 ml BSA 20%-buffer, mix by inversion and store on ice until use.
The enzyme reaction is run at 37° C. The substrate mix is added to the various reactions at 10 second intervals, incubated for 30 minutes in a water bath and then stopped with 3.25 ml of a solution containing CH3OH:CHCl3:heptane (10:9:7). After the addition of 1.05 ml potassium buffer pH10.5, the sample is vortexed thoroughly and centrifuged for 20 min at 2000 r.p.m. One ml of the upper phase is added to 10 ml scintillation fluid, and mixed thoroughly by shaking.
The samples are then counted, 5 min per vial, in a scintillation counter.

Hepatic lipase (HL) = molecular target: T2, Hepatic lipase (HL) (Homo sapiens, UniProt P11150); assay: Hepatic lipase (HL) inhibition assay, 3H-triolein substrate; assay type: biochemical; conditions: read-out: HL inhibition (% inh. at 50 μM)
T2 sequence (P11150 23-499): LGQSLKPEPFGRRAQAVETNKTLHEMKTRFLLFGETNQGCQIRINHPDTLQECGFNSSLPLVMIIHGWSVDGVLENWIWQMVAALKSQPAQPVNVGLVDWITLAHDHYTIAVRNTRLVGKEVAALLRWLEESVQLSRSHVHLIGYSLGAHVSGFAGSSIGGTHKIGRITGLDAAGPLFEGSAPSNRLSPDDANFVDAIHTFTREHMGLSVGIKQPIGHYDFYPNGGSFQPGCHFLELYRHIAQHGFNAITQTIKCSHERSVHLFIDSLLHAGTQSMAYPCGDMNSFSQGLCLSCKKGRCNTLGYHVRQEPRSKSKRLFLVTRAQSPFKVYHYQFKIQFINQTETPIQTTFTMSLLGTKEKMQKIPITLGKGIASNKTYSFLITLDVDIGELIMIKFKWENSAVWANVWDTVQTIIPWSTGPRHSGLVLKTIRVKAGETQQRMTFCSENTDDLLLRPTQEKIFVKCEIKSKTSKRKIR
Description: as §1, with “Hepatic Lipase (HL)” for “Hormone-sensitive lipase (HSL)”
Materials. The hepatic lipase employed was obtained from Dr. Howard Wong of the University of California at Los Angeles (UCLA), USA, or produced and purified using the methods and a cell line provided by Dr. Wong's laboratory. ^3H-triolein (TO) from Amersham, Buckinghamshire, U.K., cat No. TRA191; 5-20 Ci/mmol dissolved in toluene and triolein (Sigma, Cat. No. T-1740). All other reagents are of commercial grade and obtained from various commercial sources.
50 μl TO in a 20 ml scintillation vial and evaporate with N2 for 5 minutes.
Add 1 ml 10% gum arabic and 1.25 ml Tris-Cl pH 8.5 and 2 ml MilliQ water.
Sonicate, on ice, 16 times for 30 seconds with a 30-second interval between cycles.
Add 2.5 ml of 5 M NaCl+2.5 ml BSA (10% in Milli Q, pH 8)+3.25 ml Milli Q
Total volume: 12.5 ml (for 80 reactions )
If an inhibitor is going to be used, it should be incubated with the 50 μl HL (of a 125 mU/ml solution) for 70 minutes at 25° C. A 5 μl aliquot from the incubated 50 μl is added to 150 μl assay mix+45 μl Milli Q™ water and mixed.
Incubate for exactly 30 minutes at 25° C.
Stop the reaction with Methanol:chloroform:heptane 10:9:7: 3.25 ml/vial, mix; then add 1.05 ml buffer (100 mM boric acid, 100 mM potassium carbonate pH 10.5), mix for 10 seconds per vial.
Centrifuge for 20 min/2000 rpm
Take 1 ml of the upper phase+10 ml scintillation fluid and mix by shaking by hand.
Scintillation count for 5 minutes per vial.

O=C(NN1CCc2ccccc2C1)Oc1ccccc1 [Example 1, (3,4-Dihydro-1H-isoquinolin-2-yl)-carbamic Acid Phenyl Ester]
IC50 [1]: 200 nM
inhibition at 50 µM (Hepatic lipase (HL)): 5%
